ChEMBL document CHEMBL1142803, “Synthesis and in vitro study of novel 7-O-acyl derivatives of Oroxylin A as antibacterial agents” (2005)
Converted amounts (≈) assume the structure as drawn.

Columns and labels:
[1] = test system: Staphylococcus aureus; test: Minimum inhibitory concentration against gram positive Staphylococcus aureus (MTCC 96) using broth dilution method; type: functional
[2] = test system: Bacillus subtilis; test: Minimum inhibitory concentration against gram positive Bacillus subtilis (MTCC 441) using broth dilution method; type: functional
[3] = test system: Bacillus sp.; test: Minimum inhibitory concentration against gram positive Bacillus sphaericus (MTCC 11) using broth dilution method; type: functional, Lysinibacillus sphaericus; settings: Bacillus sp. (in: firmicutes)
[4] = test system: Klebsiella aerogenes; test: Minimum inhibitory concentration against gram negative Klebsiella aerogenes (MTCC 39) using broth dilution method; type: functional
[5] = Minimum inhibitory concentration against gram negative Chromobacterium violaceum (MTCC 2656) using broth dilution method; type: functional

| Structure (SMILES) | MIC [1] | MIC [2] | MIC [3] | MIC [4] | MIC [5] |
| --- | --- | --- | --- | --- | --- |
| CN[C@@H]1[C@H](O[C@H]2[C@H](O[C@H]3[C@H](O)[C@@H](O)[C@H](N=C(N)N)[C@@H](O)[C@@H]3N=C(N)N)O[C@@H](C)[C@]2(O)C=O)O[C@@H](CO)[C@H](O)[C@H]1O (stereo in doubt) [STREPTOMYCIN] | 6.25 µg/mL (≈ 10.7 µM) | 6.25 µg/mL (≈ 10.7 µM) | 12.5 µg/mL (≈ 21.5 µM) | 1.56 µg/mL (≈ 2.69 µM) | 3.12 µg/mL (≈ 5.37 µM) |
| COc1cc2oc(-c3ccccc3)cc(=O)c2c(O)c1OC [MOSLOFLAVONE] | 50 µg/mL (≈ 168 µM) | 25 µg/mL (≈ 83.8 µM) | 12.5 µg/mL (≈ 41.9 µM) | 50 µg/mL (≈ 168 µM) | 25 µg/mL (≈ 83.8 µM) |
| CCOc1cc2oc(-c3ccccc3)cc(=O)c2c(O)c1OC | 50 µg/mL (≈ 160 µM) | 25 µg/mL (≈ 80 µM) | 25 µg/mL (≈ 80 µM) | 25 µg/mL (≈ 80 µM) | 25 µg/mL (≈ 80 µM) |
| COc1c(OC(C)=O)cc2oc(-c3ccccc3)cc(=O)c2c1O | 50 µg/mL (≈ 153 µM) | 12.5 µg/mL (≈ 38.3 µM) | 25 µg/mL (≈ 76.6 µM) | 50 µg/mL (≈ 153 µM) | 25 µg/mL (≈ 76.6 µM) |
| COc1c(O)cc2oc(-c3ccccc3)cc(=O)c2c1O [OROXYLIN A] | 50 µg/mL (≈ 176 µM) | 50 µg/mL (≈ 176 µM) | 25 µg/mL (≈ 87.9 µM) | 50 µg/mL (≈ 176 µM) | 25 µg/mL (≈ 87.9 µM) |
| CCCCCCCCCCCCCC(=O)Oc1cc2oc(-c3ccccc3)cc(=O)c2c(O)c1OC | 50 µg/mL (≈ 101 µM) | 25 µg/mL (≈ 50.5 µM) | 12.5 µg/mL (≈ 25.3 µM) | 50 µg/mL (≈ 101 µM) | 25 µg/mL (≈ 50.5 µM) |
| CCCC(=O)Oc1cc2oc(-c3ccccc3)cc(=O)c2c(O)c1OC | 25 µg/mL (≈ 70.6 µM) | 25 µg/mL (≈ 70.6 µM) | 6.25 µg/mL (≈ 17.6 µM) | 25 µg/mL (≈ 70.6 µM) | 6.25 µg/mL (≈ 17.6 µM) |
| CCCCCC(=O)Oc1cc2oc(-c3ccccc3)cc(=O)c2c(O)c1OC | 25 µg/mL (≈ 65.4 µM) | 25 µg/mL (≈ 65.4 µM) | 12.5 µg/mL (≈ 32.7 µM) | 25 µg/mL (≈ 65.4 µM) | 25 µg/mL (≈ 65.4 µM) |
| CCOc1cc2oc(-c3ccccc3)cc(=O)c2c(OCC)c1OC | 25 µg/mL (≈ 73.4 µM) | 25 µg/mL (≈ 73.4 µM) | 12.5 µg/mL (≈ 36.7 µM) | 25 µg/mL (≈ 73.4 µM) | 25 µg/mL (≈ 73.4 µM) |
| COc1c(OC(=O)c2ccc(C)cc2)cc2oc(-c3ccccc3)cc(=O)c2c1O | 50 µg/mL (≈ 124 µM) | 50 µg/mL (≈ 124 µM) | 25 µg/mL (≈ 62.1 µM) | 25 µg/mL (≈ 62.1 µM) | 50 µg/mL (≈ 124 µM) |

More lines, in order of falling MIC [1], values ahead:

| MIC [1] | MIC [2] | MIC [3] | MIC [4] | MIC [5] | Structure (SMILES) |
| --- | --- | --- | --- | --- | --- |
| 25 µg/mL (≈ 80 µM) | 50 µg/mL (≈ 160 µM) | 25 µg/mL (≈ 80 µM) | 50 µg/mL (≈ 160 µM) | 25 µg/mL (≈ 80 µM) | COc1cc2oc(-c3ccccc3)cc(=O)c2c(OC)c1OC [BAICALEIN TRIMETHYL ETHER] |
| 25 µg/mL (≈ 47.8 µM) | 25 µg/mL (≈ 47.8 µM) | 25 µg/mL (≈ 47.8 µM) | 12.5 µg/mL (≈ 23.9 µM) | 25 µg/mL (≈ 47.8 µM) | CCCCCCCCCCCCCCCC(=O)Oc1cc2oc(-c3ccccc3)cc(=O)c2c(O)c1OC |
| 25 µg/mL (≈ 64.4 µM) | 12.5 µg/mL (≈ 32.2 µM) | 6.25 µg/mL (≈ 16.1 µM) | 25 µg/mL (≈ 64.4 µM) | 12.5 µg/mL (≈ 32.2 µM) | COc1c(OC(=O)c2ccccc2)cc2oc(-c3ccccc3)cc(=O)c2c1O |
| 25 µg/mL (≈ 52.3 µM) | 12.5 µg/mL (≈ 26.1 µM) | 25 µg/mL (≈ 52.3 µM) | 12.5 µg/mL (≈ 26.1 µM) | 6.25 µg/mL (≈ 13.1 µM) | COc1cc(C(=O)Oc2cc3oc(-c4ccccc4)cc(=O)c3c(O)c2OC)cc(OC)c1OC |
| 25 µg/mL (≈ 45.4 µM) | 12.5 µg/mL (≈ 22.7 µM) | 12.5 µg/mL (≈ 22.7 µM) | 25 µg/mL (≈ 45.4 µM) | 12.5 µg/mL (≈ 22.7 µM) | CCCCCCCCCCCCCCCCCC(=O)Oc1cc2oc(-c3ccccc3)cc(=O)c2c(O)c1OC |
| 12.5 µg/mL (≈ 29.6 µM) | 25 µg/mL (≈ 59.1 µM) | 25 µg/mL (≈ 59.1 µM) | 25 µg/mL (≈ 59.1 µM) | 25 µg/mL (≈ 59.1 µM) | COc1c(OC(=O)c2ccccc2Cl)cc2oc(-c3ccccc3)cc(=O)c2c1O |
| 12.5 µg/mL (≈ 26.8 µM) | 25 µg/mL (≈ 53.6 µM) | 12.5 µg/mL (≈ 26.8 µM) | 12.5 µg/mL (≈ 26.8 µM) | 25 µg/mL (≈ 53.6 µM) | CCCCCCCCCCCC(=O)Oc1cc2oc(-c3ccccc3)cc(=O)c2c(O)c1OC |
| 12.5 µg/mL (≈ 29.2 µM) | 25 µg/mL (≈ 58.4 µM) | 12.5 µg/mL (≈ 29.2 µM) | 12.5 µg/mL (≈ 29.2 µM) | 25 µg/mL (≈ 58.4 µM) | COc1c(OC(=O)C/C=C/c2ccccc2)cc2oc(-c3ccccc3)cc(=O)c2c1O |
| 1.56 µg/mL (≈ 4.46 µM) | 1.56 µg/mL (≈ 4.46 µM) | 3.12 µg/mL (≈ 8.92 µM) | 6.25 µg/mL (≈ 17.8 µM) | 12.5 µg/mL (≈ 35.7 µM) | CC1(C)S[C@@H]2[C@H](NC(=O)COc3ccccc3)C(=O)N2[C@H]1C(=O)O [PENICILLIN V] |
